Counter-ions that a name gives are not always drawn.
Tests used:
[1] = Acute lethality after intraperitoneal dosage (LD50); format: in vivo
Description: In using the compounds of this invention to inhibit prolactin secretion or to treat Parkinson's syndrome or for other pharmacologic action, a compound according to Formula I above in which R^2 is C1 -C3 alkyl or allyl and R^1 is H or C1 -C3 alkyl, or a salt thereof with a pharmaceutically-acceptable acid, is administered to a subject suffering from Parkinsonism or in need of having this prolactin level reduced in an effective amount to treat Parkinsonism or to reduce prolactin. Oral administration is preferred. If parenteral administration is used, the injection is preferably by the subcutaneous route using an appropriate pharmaceutical formulation. […] In particular, with intravenous or intramuscular administration, a water soluble pharmaceutically-acceptable salt is employed. For oral administration, the compound either as the free base or in the form of a salt thereof can also be mixed with standard pharmaceutical excipients and loaded into empty telescoping gelatin capsules or pressed into tablets. The oral dosage range is from about […]. to 10 mg./kg. of mammalian weight and the parenteral dose range from about 0.0025 to 2.5 mg./kg.

[2] = test system: 6-hydroxydopamine-lesioned rats; assay: Rat turning test in 6-hydroxydopamine-lesioned (nigro-neostriatal-lesioned) rats, dopamine agonist activity; format: in vivo; conditions: 1 mg/kg intraperitoneal; for % of Rats Exhibiting Turning Behavior: aqueous solution; for Average Number of Turns/rat: first 15 minutes after end of latency period
Description: In this test, nigro-neostriatal-lesioned rats are employed, as prepared by the procedure of Ungerstedt and Arbuthnott, Brain Res, 24, 485 (1970). A compound having dopamine agonist activity causes the rats to turn in circles contralateral to the side of the lesion. After a latency period, which varies from compound to compound, the number of turns is counted over a 15-minute period.
The compounds were dissolved in water and the aqueous solution injected into the rat by the intraperitoneal route at a dose level of 1 mg/kg.

[3] = test system: prolactin; assay: Inhibition of prolactin secretion in reserpine-treated male rats; format: in vivo, rat (Sprague-Dawley); conditions: serum one hour after treatment, reserpine pretreated male rats
Description: The compounds of this invention are also useful as prolactin inhibitors and as such they can be employed in the treatment of inappropriate lactation such as postpartum lactation and galactorrhea.
Adult male rats of the Sprague-Dawley strain weighing about 200 g. were housed in an air-conditioned room with controlled lighting (lights on […].) and fed lab chow and water ad libitum. Each rat received an intraperitoneal injection of 2.0 mg. of reserpine in aqueous suspension 18 hours before administration of the test drug. The purpose of the reserpine was to keep prolactin levels uniformly elevated. The compounds under test were dissolved in 10 percent ethanol, and were injected intraperitoneally at doses of 0.5 and 5 mg/kg. Each compound was administered at each dose level to a group of 10 rats, and a control group of 10 intact males received an equivalent amount of 10 percent ethanol. One hour after treatment, all rats were killed by decapitation, and 150 μl aliquots of serum were assayed for prolactin.
The difference between the prolactin level of the treated rats and prolactin level of the control rats, divided by the prolactin level of the control rats gives the percent inhibition of prolactin secretion attributable to the compounds of this invention. In the table, column 1 gives the name of the compound; and columns 2 and 3, the percent prolactin inhibition at the 0.5 and 5 mg/kg dose levels.

For CCCN1CCC[C@@H]2Cc3c[nH]cc3C[C@H]21 (relative stereo), the LD50 ([1]; in vivo, ip, intraperitoneal, indicated from lethality at the doses tested) was 30 to 100 mg/kg, the deaths ([1]; intraperitoneal dosages of 10-30 mg./kg.) was “no deaths” and the lethality ([1]; intraperitoneal dosages of 100-300 mg./kg.) was “fatal”.

With CN1CCC[C@@H]2Cc3c[nH]cc3C[C@H]21 (relative stereo) [trans-dl-5-Methyl-4,4a,5,6,7,8,8a,9-octahydro-2H-pyrrolo[3,4-g]quinoline maleate] the “% of Rats Exhibiting Turning Behavior” value [2] was 33%, the “Average Number of Turns/rat” value [2] was 20 Turns/rat and the “Percent Prolactin Inhibition at Given Dose” value (“Percent Prolactin Inhibition” for short) ([3]; 0.5 mg/kg intraperitoneal) was 23%. The “Percent Prolactin Inhibition” value ([3]; 5 mg/kg intraperitoneal) was 90%.

In the case of CCCN1CCC[C@@H]2Cc3c[nH]cc3C[C@H]21 (relative stereo) [trans-dl-5-n-Propyl-4,4a,5,6,7,8,8a,9-octahydro-2H-pyrrolo-[3,4-g]quinoline maleate], the “% of Rats Exhibiting Turning Behavior” value [2] is reported as 100%, the “Average Number of Turns/rat” value [2] is reported as 169 Turns/rat and the “Percent Prolactin Inhibition” value ([3]; 5 mg/kg intraperitoneal) is reported as 95%.

With CCCN1C[C@H](CO)C[C@@H]2Cc3c[nH]cc3C[C@H]21 (relative stereo) [trans-dl-5-n-propyl-7-hydroxymethyl-4,4a,5,6,7,8,8a,9-octahydropyrrolo[3,4-g]quinoline] the “% of Rats Exhibiting Turning Behavior” value [2] was 100% and the “Average Number of Turns/rat” value [2] was 109 Turns/rat.

— patent US4235909A, “Octahydro-2H-pyrrolo[3,4-g]quinolines” (Eli Lilly and Company, priority 1979, dated 1980)
